Consider nine compounds from patent US20110319392A1, “Thiazole Sulfonamide And Oxazole Sulfonamide Kinase Inhibitors” (priority 2009, published 2011).

The IC50 is the point on the concentration scale where inhibition reaches its midpoint.

One test relates to SK-MEL-3 tumor cells. Put plainly: Cell growth inhibition assay (CellTiter-Glo), SK-MEL-3. The settings on record: for IC50: Homo sapiens, SK-MEL3. The format is cell-based, Human. The method, boiled down: (§1)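 Cells seeded at 500/well (HN5 and HT-29 in high-glucose DMEM/10% FBS; A375P F11s in RPMI/10% FBS with pyruvate; SK-MEL-3 in McCoy's 5A/15% FBS), then exposed next day to 1:3 serial compound dilutions (0.2% DMSO) for 3 days at 37° C. CellTiter-Glo luminescence measured ATP; IC50 derived by 4-parameter fit.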
A general note: In ATP-based viability assays light output follows the ATP content of the culture.

Another test deals with SK-MEL-28 tumor cells. Kind of test: Cell growth inhibition assay (CellTiter-Glo), SK-MEL-28. The format is cell-based, Human. As to conditions: Homo sapiens, SK-MEL-28, 72 h; 3 days incubation. The method in brief:
(§2)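 Readout was CellTiter-Glo luminescence (total ATP, surrogate for cell number) after 3-day exposure at 37° C, 5% CO2 to 1:3 serial compound dilutions in 0.2% final DMSO. Seeding was 500 cells/well; IC50 derived by 4-parameter fit relative to vehicle-treated wells.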

Another test relates to HN5 tumor cells. Put plainly: Cell growth inhibition assay (CellTiter-Glo), HN5. Format: cell-based, Human. As to conditions: Homo sapiens, 72 h; 3 days incubation. The method in brief: as §1
Another test deals with B-Raf (Homo sapiens, UniProt P15056). Put plainly: B-Raf Accelerated MEK ATPase assay (BRAMA), Method A or B. As to conditions: Method B: final MEK 150 nM, single end point read. Format: biochemical. The method, boiled down: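 ADP production, initiated by catalytic activated Raf with unphosphorylated MEK, is followed by NADH oxidation through a PK/LDH coupled system. Method B differs from the kinetic Method A by a single end-point read and 150 nM final MEK.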
Sequence of B-Raf (P15056 whole entry): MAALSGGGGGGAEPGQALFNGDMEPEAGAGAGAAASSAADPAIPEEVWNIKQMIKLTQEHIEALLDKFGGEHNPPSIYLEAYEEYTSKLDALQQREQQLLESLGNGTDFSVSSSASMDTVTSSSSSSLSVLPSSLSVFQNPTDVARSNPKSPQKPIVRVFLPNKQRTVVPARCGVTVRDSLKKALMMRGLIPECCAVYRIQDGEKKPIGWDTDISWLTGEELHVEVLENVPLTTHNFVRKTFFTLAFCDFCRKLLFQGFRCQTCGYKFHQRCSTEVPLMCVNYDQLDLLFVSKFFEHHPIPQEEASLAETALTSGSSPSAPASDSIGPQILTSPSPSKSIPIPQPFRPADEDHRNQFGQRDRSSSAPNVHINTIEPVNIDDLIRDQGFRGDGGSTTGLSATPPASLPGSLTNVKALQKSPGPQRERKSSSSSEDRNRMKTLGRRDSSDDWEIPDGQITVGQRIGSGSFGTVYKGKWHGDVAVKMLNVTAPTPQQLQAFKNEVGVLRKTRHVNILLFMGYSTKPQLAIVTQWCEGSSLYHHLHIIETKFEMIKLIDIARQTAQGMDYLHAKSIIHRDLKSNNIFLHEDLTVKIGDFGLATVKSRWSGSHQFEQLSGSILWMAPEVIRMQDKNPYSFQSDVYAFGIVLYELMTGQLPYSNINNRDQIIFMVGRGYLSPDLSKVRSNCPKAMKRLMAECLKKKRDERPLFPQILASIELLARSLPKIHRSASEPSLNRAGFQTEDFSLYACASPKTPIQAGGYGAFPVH

For another test, the system named is Colo205 tumor cells. Put plainly: Cell growth inhibition assay (CellTiter-Glo), Colo205. The format is cell-based, Human. The settings on record: Homo sapiens, COLO 205, 72 h; 3 days incubation. The method in brief: as §2
A further test deals with HT-29 tumor cells. Kind of test: Cell growth inhibition assay (CellTiter-Glo), HT-29. The format is cell-based, Human. As to conditions: Homo sapiens. The method in brief:
as §1

Another test has as its system BT474 tumor cells. Kind of test: Cell growth inhibition assay (CellTiter-Glo), BT474. The format is cell-based, Human. As to conditions: Homo sapiens, BT-474, 72 h, 3 days incubation.
The next test deals with A375P F11s tumor cells. Kind of test: Cell growth inhibition assay (CellTiter-Glo), A375P F11s. The format is cell-based, Human. As to conditions: Homo sapiens. The method in brief: as §1

Structures are written as SMILES. Where a name gives a salt, the structure may show the parent alone.

`O=S(=O)(Nc1cccc(-c2nc(N3CCCC3)sc2-c2ccnc(Nc3ccc(N4CCN(CCF)CC4)c(F)c3)n2)c1)c1c(F)cccc1F` [Example 21, 2,6-Difluoro-N-{3-[5-[2-({3-fluoro-4-[4-(2-fluoroethyl)-1-piperazinyl]phenyl}amino)-4-pyrimidinyl]-2-(1-pyrrolidinyl)-1,3-thiazol-4-yl]phenyl}benzenesulfonamide]: the IC50 with SK-MEL-3 tumor cells is under 100 nM; in the test on SK-MEL-28 tumor cells, under 100 nM; in the test on HN5 tumor cells it was 100 to 1000 nM; against B-Raf, under 100 nM; with Colo205 tumor cells, under 100 nM; with HT-29 tumor cells it was under 100 nM. In addition, the IC50 is over 1000 nM in the test with BT474 tumor cells and under 100 nM in the test with A375P F11s tumor cells.

Regarding `O=S(=O)(Nc1cc(-c2nc(N3CCCC3)oc2-c2ccnc(Nc3ccc(N4CCN(CCF)CC4)c(F)c3)n2)ccc1F)c1c(F)cccc1F` [Example 114], the “Activity in SK-MEL-3 Tumor Cells” value with SK-MEL-3 tumor cells was “+ (activity of >1 μM in SK-MEL-3 tumor cells)”. In addition, the IC50 in the test with SK-MEL-28 tumor cells is 100 to 1000 nM; in the test with HN5 tumor cells, over 1000 nM; at B-Raf it was 100 to 1000 nM; in the test on Colo205 tumor cells, 100 to 1000 nM; with HT-29 tumor cells it was over 1000 nM; in the test with BT474 tumor cells it was over 1000 nM. This compound also yielded an IC50 in the test on A375P F11s tumor cells of 100 to 1000 nM.

As for `CS(=O)(=O)CCN1CCN(c2ccc(Nc3nccc(-c4oc(N5CCCC5)nc4-c4cccc(NS(=O)(=O)c5c(F)cccc5F)c4F)n3)cc2F)CC1` [Example 167], the IC50 with SK-MEL-3 tumor cells is under 100 nM; with SK-MEL-28 tumor cells it was under 100 nM; with HN5 tumor cells, 100 to 1000 nM; on B-Raf, under 100 nM; in the test with Colo205 tumor cells, under 100 nM; with HT-29 tumor cells, under 100 nM. Moreover, the figures for the IC50 in the test with BT474 tumor cells and in the test on A375P F11s tumor cells were over 1000 nM and under 100 nM, respectively.

Consider `Cc1nc(Cl)sc1S(=O)(=O)Nc1cccc(-c2nc(C(C)C)sc2-c2ccnc(Nc3ccc(N4CCOCC4)nc3)n2)c1` [Example 42], for which the IC50 is under 100 nM in the test on SK-MEL-3 tumor cells; under 100 nM in the test on SK-MEL-28 tumor cells; under 100 nM with HN5 tumor cells; under 100 nM against B-Raf; under 100 nM in the test on Colo205 tumor cells; 100 to 1000 nM in the test with HT-29 tumor cells. Besides, the IC50 is over 1000 nM with BT474 tumor cells and 100 to 1000 nM in the test on A375P F11s tumor cells.

As to `CCc1nc(-c2cccc(CNS(=O)(=O)c3ccccc3)c2)c(-c2ccnc(Nc3ccc(N4CCOCC4)c(F)c3)n2)s1` [Example 34], the “Activity in SK-MEL-3 Tumor Cells” value with SK-MEL-3 tumor cells is given as “+ (activity of >1 μM in SK-MEL-3 tumor cells)”. For the same compound, the IC50 in the test with SK-MEL-28 tumor cells is 100 to 1000 nM; in the test on HN5 tumor cells it was over 1000 nM; against B-Raf it was under 100 nM; in the test with Colo205 tumor cells, 100 to 1000 nM; in the test on HT-29 tumor cells it was over 1000 nM; in the test with BT474 tumor cells it was over 1000 nM. The IC50 in the test with A375P F11s tumor cells is 100 to 1000 nM.

As for `COc1ccc(Nc2nccc(-c3sc(C(C)C)nc3-c3cccc(NS(=O)(=O)c4c(F)cccc4F)c3)n2)cc1N(C)C` [Example 18, N-{3-[5-(2-{[3-(Dimethylamino)-4-(methyloxy)phenyl]amino}-4-pyrimidinyl)-2-(1-methylethyl)-1,3-thiazol-4-yl]phenyl}-2,6-difluorobenzenesulfonamide trifluoroacetate], the IC50 was under 100 nM in the test with SK-MEL-3 tumor cells; under 100 nM in the test with SK-MEL-28 tumor cells; 100 to 1000 nM in the test on HN5 tumor cells; under 100 nM against B-Raf; under 100 nM in the test on Colo205 tumor cells; under 100 nM in the test with HT-29 tumor cells. Besides, the figures for the IC50 in the test on BT474 tumor cells and in the test on A375P F11s tumor cells were over 1000 nM and under 100 nM, respectively.

Regarding `CCOc1ccc(Nc2nccc(-c3sc(C(C)C)nc3-c3ccc(F)c(NS(=O)(=O)c4c(F)cccc4F)c3)n2)cc1N1CCN(CCF)CC1` [Example 98], the IC50 was 100 to 1000 nM with SK-MEL-3 tumor cells; 100 to 1000 nM in the test with SK-MEL-28 tumor cells; over 1000 nM with HN5 tumor cells; under 100 nM against B-Raf; 100 to 1000 nM in the test on Colo205 tumor cells; over 1000 nM in the test on HT-29 tumor cells. Besides, the IC50 in the test with BT474 tumor cells is over 1000 nM; with A375P F11s tumor cells it was 100 to 1000 nM.

Take `CC(C)c1nc(-c2cccc(NS(=O)(=O)c3c(F)cccc3F)c2)c(-c2ccnc(Nc3ccc(N4CCOCC4)c(F)c3)n2)o1` [Example 57]: the IC50 was 100 to 1000 nM in the test with SK-MEL-3 tumor cells; under 100 nM in the test on SK-MEL-28 tumor cells; 100 to 1000 nM with HN5 tumor cells; under 100 nM at B-Raf; under 100 nM in the test with Colo205 tumor cells; 100 to 1000 nM in the test with HT-29 tumor cells. Further, the IC50 in the test with BT474 tumor cells was over 1000 nM; in the test with A375P F11s tumor cells, 100 to 1000 nM.

`CC(C)c1nc(-c2cccc(NS(=O)(=O)C3CCCCC3)c2)c(-c2ccnc(Nc3ccc(N4CCOCC4)c(F)c3)n2)s1` [Example 38]: the “Activity in SK-MEL-3 Tumor Cells” value with SK-MEL-3 tumor cells was “+ (activity of >1 μM in SK-MEL-3 tumor cells)”. The concentration for half-maximal inhibition (IC50) in the test with SK-MEL-28 tumor cells was 100 to 1000 nM; with HN5 tumor cells it was over 1000 nM; against B-Raf, 100 to 1000 nM; in the test with Colo205 tumor cells, 100 to 1000 nM; in the test on HT-29 tumor cells, over 1000 nM; in the test with BT474 tumor cells it was over 1000 nM. In the test with A375P F11s tumor cells, this compound had an IC50 of 100 to 1000 nM.
